Here are results for 17 compounds from patent US20250145589A1, “PYRIDINE DERIVATIVE AND USE THEREOF” (SICHUAN HUIYU PHARMACEUTICAL CO., LTD., priority 2021, published 2025).

The test system of test [1] is NCI-H358 cells (KRAS G12C mutant). Put plainly: NCI-H358 cell proliferation inhibition (CellTiter-Glo). Particulars: Homo sapiens, NCI-H358, 72 h; H358 cells (G12C mutation), 3 days, Table 6; read-out: NCI-H358 (IC50). The test is classed as cell-based. A general note: In ATP-based viability assays light output follows the ATP content of the culture.
Test [2] relates to MIA PaCa-2-AMGR drug-resistant cell line. The test is described as follows: MIA PaCa-2-AMGR drug-resistant cell proliferation inhibitory activity test. The test is classed as cell-based. The note with it: 72 h, MIA PaCa-2-AMGR drug-resistant cells, 3 days incubation, CellTiter-Glo. The gist of the method: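 Viability was read by CellTiter-Glo luminescence after 3 days of compound exposure (8 points, 5-fold serial dilution), with IC50 derived relative to untreated control. Cells: AMG510-resistant MIA PaCa-2 (selected stepwise to 1 μM AMG510), 4×10^3/well, DMEM + 10% FBS + 2.5% horse serum, 37° C.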

Broadly, the IC50 is the point on the concentration scale where inhibition reaches its midpoint. With `C=C(C(C)=O)C(=O)N1CCN(c2ncnc3ccc(-c4cnc(OC)c(NS(=O)(=O)c5ccc(F)cc5F)c4)cc23)CC1` [Example 168, 2,4-difluoro-N-(2-methoxy-5-(4-(4-(2-methylene-3-oxobutanoyl)piperazin-1-yl)quinazolin-6-yl)pyridin-3-yl)benzenesulfonamide], the IC50 in test [1] was 31.2 nM; in test [2] it was 192 nM.

For the compound `COc1ncc(-c2ccc3ncnc(N4CC5CCC4CN5C(=O)/C=C/C(C)=O)c3c2)cc1NS(=O)(=O)c1ccc(F)cc1F` (stereo not shown) [Example 158, (E)-2,4-difluoro-N-(2-methoxy-5-(4-(5-(4-oxopent-2-enoyl)-2,5-diazabicyclo[2.2.2]octan-2-yl)quinazolin-6-yl)pyridin-3-yl)benzenesulfonamide], the IC50 is 55.2 nM in test [1] and 136 nM in test [2].

In the case of `COc1ccc(Cl)c(S(=O)(=O)Nc2cc(-c3ccc4ncnc(N5CCN(C(=O)/C=C/C(C)=O)CC5)c4c3)cnc2OC)c1` [Example 184, (E)-2-chloro-5-methoxy-N-(2-methoxy-5-(4-(4-(4-oxopent-2-enoyl)piperazin-1-yl)quinazolin-6-yl)pyridin-3-yl)benzene-sulfonamide], the IC50 was 73.8 nM in test [1] and 176 nM in test [2].

As to `COc1ncc(-c2ccc3ncnc(C4CCN(C(=O)/C=C/C(C)=O)CC4)c3n2)cc1NS(=O)(=O)c1ccc(F)cc1F` [Example 234, (E)-2,4-difluoro-N-(2-methoxy-5-(4-(1-(4-oxopent-2-enoyl)piperidin-4-yl)pyrido[3,2-d]pyrimidin-6-yl)pyridin-3-yl)benzenesulfonamide], the IC50 in test [1] came out at 5.5 nM; in test [2], 5.3 nM.

For the compound `COc1ncc(-c2ccc3ncnc(N4CCN(C(=O)/C=C/C(C)=O)CC4)c3c2)cc1NS(=O)(=O)c1ccc(F)cc1Cl` [Example 169, (E)-2-chloro-4-fluoro-N-(2-methoxy-5-(4-(4-(4-oxopent-2-enoyl)piperazin-1-yl)quinazolin-6-yl)pyridin-3-yl)benzenesulfonamide], the figures for the IC50 in test [1] and in test [2] were 5.7 nM and 54.4 nM, respectively.

In the case of `COc1ncc(-c2ccc3ncnc(C4=CCN(C(=O)/C=C/C(C)=O)CC4)c3c2)cc1NS(=O)(=O)c1c(F)cccc1Cl` [Example 202, (E)-2-chloro-6-fluoro-N-(2-methoxy-5-(4-(1-(4-oxopent-2-enoyl)-1,2,3,6-tetrahydropyridin-4-yl)quinazolin-6-yl)pyridin-3-yl)benzene-sulfonamide], the IC50 was found to be 5.2 nM in test [1] and 13 nM in test [2].

For `COc1ncc(-c2ccc3ncnc(N4CCC5(CC4)CN(C(=O)/C=C/C(C)=O)C5)c3c2)cc1NS(=O)(=O)c1ccc(F)cc1` [Example 161, (E)-4-fluoro-N-(2-methoxy-5-(4-(2-(4-oxopent-2-enoyl)-2,7-diazaspiro[3.5]nonan-7-yl)quinazolin-6-yl)pyridin-3-yl)benzenesulfonamide], the figures for the IC50 in test [1] and in test [2] were 43.4 nM and 55.3 nM, respectively.

Take `COc1ncc(-c2ccc3ncnc(N4CCN(C(=O)/C=C/C(C)=O)CC4)c3n2)cc1NS(=O)(=O)c1c(F)cccc1Cl` [Example 225, (E)-2-chloro-6-fluoro-N-(2-methoxy-5-(4-(4-(4-oxopent-2-enoyl)piperazin-1-yl)pyrido[3,2-d]pyrimidin-6-yl)pyridin-3-yl) benzene-sulfonamide]: the IC50 was 13.5 nM in test [1] and 26 nM in test [2].

For the compound `COc1ncc(-c2ccc3ncnc(C4=CCN(C(=O)/C=C/C(C)=O)CC4)c3c2)cc1NS(=O)(=O)c1ccc(F)cc1F` [Example 198, (E)-2,4-difluoro-N-(2-methoxy-5-(4-(1-(4-oxopent-2-enoyl)-1,2,3,6-tetrahydropyridin-4-yl)quinazolin-6-yl)pyridin-3-yl)benzenesulfonamide], the IC50 stood at 12.2 nM in test [1] and 10.7 nM in test [2].

On to `COc1ncc(-c2ccc3ncnc(N4CCN(C(=O)/C=C/C(C)=O)CC4)c3c2)cc1NS(=O)(=O)c1ccc(F)cc1F` [Example 6, (E)-2,4-difluoro-N-(2-methoxy-5-(4-(4-(4-oxopent-2-enoyl)piperazin-1-yl)quinazoline-6-yl)pyridin-3-yl)benzenesulfonamide], for which the results for the half-inhibitory concentration (IC50) in test [1] and in test [2] were 18 nM and 49.2 nM, respectively.

Regarding `COc1ncc(-c2ccc3ncnc(C4CCN(C(=O)/C=C/C(C)=O)CC4)c3c2)cc1NS(=O)(=O)c1ccccc1F` [Example 204, (E)-2-fluoro-N-(2-methoxy-5-(4-(1-(4-oxopent-2-enoyl)piperidin-4-yl)quinazolin-6-yl)pyridin-3-yl)benzenesulfonamide], the IC50 was found to be 25.2 nM in test [1] and 45.8 nM in test [2].

Turning to `COc1ncc(-c2ccc3ncnc(N4C[C@@H](C)N(C(=O)/C=C/C(C)=O)C[C@@H]4C)c3c2)cc1NS(=O)(=O)c1c(F)cccc1F` [Example 51, N-(5-(4-((2S,5R)-2,5-dimethyl-4-((E)-4-oxopent-2-enoyl)piperazin-1-yl)quinazolin-6-yl)-2-methoxypyridin-3-yl)-2,6-difluorobenzene-sulfonamide], the IC50 in test [1] was determined as 48.7 nM; in test [2], 181 nM.

For the compound `COc1ncc(-c2ccc3ncnc(C4=CCN(C(=O)/C=C/C(C)=O)CC4)c3c2)cc1NS(=O)(=O)c1sc(C)nc1C` [Example 199, (E)-N-(2-methoxy-5-(4-(1-(4-oxopent-2-enoyl)-1,2,3,6-tetrahydropyridin-4-yl)quinazolin-6-yl)pyridin-3-yl)-2,4-dimethylthiazole-5-sulfonamide], the values for the IC50 in test [1] and in test [2] were 12 nM and 19.1 nM, respectively.

On to `COc1ncc(-c2ccc3ncnc(N4C[C@@H](C)N(C(=O)/C=C/C(C)=O)C[C@@H]4C)c3c2)cc1NS(=O)(=O)c1ccc(F)cc1F` [Example 15, N-(5-(4-((2S,5R)-2,5-dimethyl-4-((E)-4-oxopent-2-enoyl)piperazin-1-yl)quinazolin-6-yl)-2-methoxypyridin-3-yl)-2,4-difluorobenzenesulfonamide], for which the IC50 in test [1] is 19.9 nM; in test [2], 243 nM.

Turning to `COc1ncc(-c2ccc3ncnc(N4CCN(C(=O)/C=C/C(C)=O)CC4)c3c2)cc1NS(=O)(=O)c1cc(F)ccc1F` [Example 94, (E)-2,5-difluoro-N-(2-methoxy-5-(4-(4-(4-oxopent-2-enoyl)piperazin-1-yl)quinazolin-6-yl)pyridin-3-yl)benzenesulfonamide], the IC50 in test [1] amounted to 62.5 nM; in test [2], 126 nM.

Regarding `C=CC(=O)N1CCN(c2ncnc3ccc(-c4cnc(OC)c(NS(=O)(=O)c5ccc(F)cc5F)c4)cc23)[C@@H](C)C1` [Example 7, (S)—N-(5-(4-(4-acryloyl-2-methylpiperazin-1-yl)quinazolin-6-yl)-2-methoxypyridin-3-yl)-2,4-difluorobenzenesulfonamide], the IC50 came out at 44 nM in test [1] and 222 nM in test [2].

With `COc1ncc(-c2ccc3ncnc(N4CCN(C(=O)/C=C/C(C)=O)C[C@@H]4C)c3c2)cc1NS(=O)(=O)c1c(F)cccc1F` [Example 46, (S,E)-2,6-difluoro-N-(2-methoxy-5-(4-(2-methyl-4-(4-oxopent-2-enoyl)piperazin-1-yl)quinazolin-6-yl)pyridin-3-yl) benzenesulfonamide], the IC50 is 29.9 nM in test [1] and 77.4 nM in test [2].
